Here are results for 1 compound from patent US20260226417A1, “METHOD FOR INHIBITING AGING OF STEM CELLS” (ENCELL CO., LTD, priority 2023, published 2026).

The subject of test [1] is human adipose-derived mesenchymal stem cells (AD-MSCs/passage 18). Briefly: β-galactosidase staining, senescent AD-MSCs. The class given is cell-based. The conditions noted are these: AD-MSCs passage 18, 3 days. An excerpt: (§1) Human placenta-derived mesenchymal stem cells (pl-mscs) Were Isolated From Placentas Separated according to the previously reported method of Choi et al. (PLOS ONE, (2017) 12 (2): e0172642), umbilical cord blood-derived mesenchymal stem cells (UCB-MSCs) were isolated from the umbilical cord blood separated according to the method of Kim et al. (FEBS Letters, (2010) 584:3601-3608), and adipose tissue-derived mesenchymal stem cells (AD-MSCs) were isolated from adipose tissue separated according to the previously reported method of Palumbo et al. (Int. J. Mol. Sci. (2018) 19:1987).
(§2) Each of the obtained mesenchymal stem cells was subcultured in aMEM (a-modified Minimum Essential Media) containing 10% fetal bovine serum (FBS) and 0.5% gentamicin (10 mg/ml).
(§3) The replicative senescence models of human adipose-derived mesenchymal stem cells (AD-MSCs/passage 18), human bone marrow-derived mesenchymal stem cells (BM-MSCs/passage 15), human umbilical cord blood-derived mesenchymal stem cells (UCB-MSCs/passage 16), and human placenta-derived mesenchymal stem cells (PL-MSCs/passage 18) established as described above were treated with nervonic acid for 3 days, and β-galactosidase staining was performed to observe the extent of senescence.

In test [2] the test system is human umbilical cord blood-derived mesenchymal stem cells (UCB-MSCs/passage 16). Briefly: β-galactosidase staining, senescent UCB-MSCs. The class given is cell-based. The conditions noted are these: UCB-MSCs passage 16, 3 days.
Source text: as §1, §2, §3

Test [3] has as its system human placenta-derived mesenchymal stem cells (PL-MSCs/passage 18). Briefly: β-galactosidase staining, senescent PL-MSCs. The class given is cell-based. The conditions noted are these: PL-MSCs passage 18, 3 days.
Source text: as §1, §2, §3

Test [4] deals with human-derived mesenchymal stem cells, control cells (P5) subcultured to P10. Briefly: β-galactosidase staining during serial subculture P5 to P10 with treatment at each passage. Type of test: cell-based. The note with it: 160 μM for 24 hours at each passage. The procedure:
(§4) Example 8. Confirmation Of anti-senescence efficacy by treating various human tissue-derived mesenchymal stem cells with nervonic acid Human-derived mesenchymal stem cells were treated with nervonic acid (160 μM) at each passage during cell culture from control cells (P5) to P10 to determine whether continuous treatment with nervonic acid during cell culture at early passage numbers was able to delay cellular senescence.
(§5) Specifically, from the day after human-derived mesenchymal stem cells were subcultured, treatment with 160 μM nervonic acid or an equivalent amount of DMSO (control) for 24 hours was performed, followed by replacement with the existing culture medium the next day. The above process was repeated to perform subculture up to P10 (passage 10). As such, B galactosidase staining for measuring cellular senescence was performed at P7, P8, P9, and P10, and cell doubling time and RNA extraction for qRT-PCR were both performed at P10. A more specific procedure therefor was carried out in the same manner as described above.

Test [5] relates to SASP markers IL-6, MMP3, IGFBP3, IGFBP5, IGFBP7. Briefly: qRT-PCR of SASP markers at P10 after treatment at each passage. The note with it: 160 μM for 24 hours at each passage. Type of test: cell-based, human. The procedure: Specifically, qRT-PCR performed in this example is as follows: after treating the replicative senescence model (P18) with nervonic acid for 3 days, total RNA was extracted using Trizol (Invitrogen, MA, USA) according to the method provided by the vendor. After quantifying the extracted total RNA, random hexamer and dNTP were added, and PCR was performed at 65° C. for 5 minutes. 5× SSIV buffer, 100 mM DTT, RNAse OUT, and Superscript IV RT were added and reverse transcription was performed to synthesize cDNA, and then qRT-PCR was performed to measure gene expression, and the expression levels were compared through 2^−ΔΔCt analysis.
as §4, §5
(In general: Real-time PCR tracks product formation cycle by cycle.)

The test system of test [6] is Annexin V, an apoptosis marker, in muscle tissue. Briefly: Annexin V immunohistochemical staining in muscle tissue of muscle disease mouse model after injection of treated P18 cells. The note with it: P18 cells treated with 160 μM for 72 hours, 5×10^4 cells per mouse via tail vein, one week after injection. The class given is in vivo. The procedure:
(§6) A replicative senescence model (P18) was treated with nervonic acid (160 μM) and then injected into a muscle disease mouse model to assess the effect of nervonic acid treatment on the therapeutic efficacy of the replicative senescence model (P18) in terms of reducing apoptosis in muscle tissue.
Specifically, the muscle disease mouse model used was C57BL/10ScSn-Dmdmdx/J (mdx mouse) , and C57BL/10J with the same genetic background was used as a control group. All experiments were conducted using mice aged 4 to 5 months. The cells to be injected were human umbilical cord-derived young mesenchymal stem cells (control group) (P5) and replicative senescence model (P18). […]
In order to assess the extent of apoptosis in the muscle tissue of a muscle disease mouse model after injecting mesenchymal stem cells for each condition, the extent of apoptosis in the tissue was determined through immunohistochemical staining for Annexin V, an apoptosis marker. […] Then, the secondary antibody (fluorescence-labeled polymer anti-rabbit) was added and incubated for […] followed by mounting, DAPI staining, washing, and then observation and photography under a fluorescence microscope.

The test system is the same in test [7]. Nature of the test: Annexin V Western blotting in muscle tissue of muscle disease mouse model after injection of treated P18 cells. Type of test: in vivo. The conditions noted are these: P18 cells treated with 160 μM for 72 hours, 5×10^4 cells per mouse via tail vein, one week after injection. The method, then: as §6
Specifically, the muscle disease mouse model used was C57BL/10ScSn-Dmdmdx/J (mdx mouse) , and C57BL/10J with the same genetic background was used as a control group. All experiments were conducted using mice aged 4 to 5 months. The cells to be injected were human umbilical cord-derived young mesenchymal stem cells (control group) (P5) and replicative senescence model (P18). More specifically, the replicative senescence model (P18) was treated with 160 μM nervonic acid or an equivalent amount of DMSO for 72 hours during culture at P18 and then dissociated as single cells with 0.25% Trypsin/EDTA (Gibco, MT, USA), and 5×10^4 cells per mouse were injected via the tail vein. One week after injection, both tibial muscles of the mouse model were harvested and fixed in 4% paraformaldehyde or frozen.
In addition, the expression of Annexin V was assessed at the protein level. Specifically, the protein to be used in the experiment was extracted from muscle tissue. […]
On the technique in general: A western blot detects proteins with antibodies after separation by electrophoresis.

For `CCCCCCCC/C=C\CCCCCCCCCCCCCC(=O)O` [nervonic acid], the “progression of senescence (β-galactosidase staining) compared to control group (DMSO)” value (“progression … compared to control group (DMSO)” below) in test [1] is on record as “progression of senescence was significantly inhibited”. For the same compound, the “progression … compared to control group (DMSO)” value in test [2] is “progression of senescence was significantly inhibited”. Also, the “progression … compared to control group (DMSO)” value in test [3] is “progression of senescence was significantly inhibited”. In addition, the “extent of senescence (β-galactosidase staining), fold compared to DMSO control at P10” value in test [4] came to 0.40±0.07 fold. In test [5], the “IGFBP3 mRNA expression, fold compared to control group (DMSO)” value was 0.77±0.03 fold; the “IGFBP5 mRNA expression, fold compared to control group (DMSO)” value came out at 0.80±0.03 fold; the “IGFBP7 mRNA expression, fold compared to control group (DMSO)” value is on record as 0.91±0.03 fold; the “IL-6 mRNA expression, fold compared to control group (DMSO)” value is 0.77±0.03 fold. Besides, the “MMP3 mRNA expression, fold compared to control group (DMSO)” value in test [5] was found to be 0.65±0.07 fold. Also, in test [6], the “Annexin V expression level (immunohistochemical staining) compared to mdx control group” value is “significantly reduced”. In addition, the “Annexin V protein expression (Western blotting), fold decrease compared to mdx control group” value in test [7] was 0.30±0.02 fold.
